Experimental findings from patent US6638961B2 (priority 1994, dated 2003) are described below.

Assay [1] relates to Plasmopara viticola (vine downy mildew). Kind of assay: In vivo trial on Plasmopara viticola (vine downy mildew) by preventive treatment at 24 hours, vine cuttings Chardonnay variety. To be noted: dose 3.2 mg/l compound A and/or 12.5 mg/l mancozeb; contamination 24 hours after treatment. As to the method:
(§1) A 60 mg suspension is prepared comprising compounds A and B in a liquid mixture consisting of 0.3 ml of a surface-active agent (oleate of a polyoxyethylenated derivative of sorbitan) diluted 10% in water and of 60 ml of water.
(§2) Vine cuttings (Vitis vinifera) Chardonnay variety, are cultivated in pots. When these plants are 2 months old (8 to 10-leaf stage, height 10 to 15 cm), they are treated by spraying using the above suspension.
(§3) Plants used as controls are treated with a similar suspension but not containing any active substance (formulation blank).
(§4) After drying for 72 hours, each plant is contaminated by spraying an aqueous Plasmopara viticola spore suspension obtained from sporulated leaves contaminated 7 days earlier. These spores are suspended in an amount of 100,000 units per cm^3.
(§5) The contaminated plants are then incubated for two days at about 18° C., in an atmosphere saturated with moisture, and then for 5 days at 20-22° C. under a relative humidity of 90-100%.
Example 2 is repeated using as component B mancozeb, using A and B concentrations in the suspension for treating the plants equal to 3.2 and 12.5 mg/l respectively, and finally carrying out the contamination 24 hours after the treatment.
The efficacy measured, as well as the efficacy of products A and B alone measured under the same conditions, is indicated in the table below. […]

Assay [2] concerns Phytophthora infestans (tomato blight). Format: in vivo. To be noted: for dose of the active substance alone which it is necessary to apply to obtain the destruction of 90% of the pest: applied alone, tomato plants sprayed 48 hours before contamination, reading 7 days after contamination.
Assay [3] has as its system Plasmopara viticola (vine downy mildew). In words: In vivo trial on Plasmopara viticola (vine downy mildew) by preventive treatment at 72 hours, vine cuttings Chardonnay variety. As to the method:
as §1, §2, §3, §4, §5

Several values for one entry are separate records, joined by “and”; a condition that tells them apart may be missing. Equal entries are not always repeated.

As for mancozeb, the “Efficacy (in %)” value in assay [1] is on record as 0%.

With `CCN(C)C(=O)c1ccc(C(F)(F)F)cc1-c1ccc(OC)c(OC)c1` [N-methyl-N-ethyl-2-(3,4-dimethoxyphenyl)-4-trifluoromethylbenzamide], the “dose of the active substance alone which it is necessary to apply to obtain the destruction of 90% of the pest” value in assay [2] worked out at 166 mg/L.

With `CSC1=N[C@@](C)(c2ccccc2)C(=O)N1Nc1ccccc1` [Compound A, (4S)-4-methyl-2-methylthio-4-phenyl-1-phenylamino-2-imidazolin-5-one], the “dose of the active substance alone which it is necessary to apply to obtain the destruction of 90% of the pest” value is 309 mg/L and 163 mg/L in assay [2]; 20 mg/L in assay [3] (applied alone, vine plants sprayed 72 hours before contamination, reading 7 days after contamination). The “Efficacy (in %)” value in assay [1] is recorded as 80.8%.

In the case of `CCO[PH](=O)O` [fosetyl-Al], the “efficacy when applied alone” value in assay [2] (applied alone under the trial conditions, preventive 48 hours, 90% destruction level (FIG. 1)) is recorded as “not effective”; in assay [3] (applied alone under the trial conditions, preventive 72 hours, 90% destruction level (FIG. 2)), “not effective”.
